Assay results reported in patent US4906618A, “Prophylactic and therapeutic agent against swine dysentery” (Fujisawa Pharmaceutical Co., Ltd., priority 1986, dated 1990).
Read-outs that look alike come from different tables or passages of the source.

Key:
Treponema hyodysenteriae = assay: In vitro activity (MIC) against Treponema hyodysenteriae, agar dilution; assay type: cell-based; conditions: for MIC: Brachyspira hyodysenteriae, read-out: MIC (minimum inhibitory concentration); for MIC (minimum inhibitory concentration): 72 hours anaerobic, 37° C.
Method: The test organisms were grown anaerobically for 96 hours on Trypticase soy agar plate supplemented with 5% sheep blood. Appropriate amounts of physiological saline solution were poured into each agar plate to make a cell-suspension of test organism, which was finally adjusted at the cell density of 10^6 colony forming units (CFU)/ml. Freshly prepared Trypticase soy agar plates supplemented with 5% sheep blood which were containing serial two-fold dilutions of each of the compounds as mentioned below were inoculated with a loopful (about 5 μl) of the above-mentioned cell-suspension. The MIC (minimum inhibitory concentration) values were determined after 72 hours of anaerobical incubation at 37° C. in Gas Pak jars.

[1] = system: Treponema hyodysenteriae S5709; assay: Protective effect against experimental infection of Treponema hyodysenteriae in mice; assay type: in vivo, mice (ddy); conditions: 5 mg/kg, oral, once a day on first and second day after challenge, one week after infection
Method: 5 week-old mice (ddy, .male.) were used in these experiments. Mice were orally infected with 1.8×10^7 cells of Treponema hyodysenteriae S5709 grown for 96 hours on Trypticase soy agar plate supplemented with 5% sheep blood. On the first and second day after challenge, test compounds were given by oral administration once a day. One week after infection, the efficacy of the antibiotics on mice suffering from dysentery was determined as follows. Cecum contents from infected mice were suspended in 2 ml of saline solution, diluted twenty times with Trypticase soy medium supplemented with 5% sheep blood and cultured for T. hyodysenteriae on agar plate of Trypticase soy medium supplemented with 5% sheep blood at 37° C. for 72 hours in Gas Pak jars. The numbers of T. hyodysenteriae colony appeared on the plates were counted. Mice that gave no colony formations of T. hyodysenteriae were regarded as cured mice.

[2] = system: Treponema hyodysenteriae ATCC31212; assay: Therapeutic effect on experimentally induced swine dysentery in piglets; assay type: in vivo, piglets (Landace×Large White crossbred); conditions: solution in water; for (average) days of disappearance of fecal T. h: detection limit 10^2 CFU/g of feces
Method: Seven piglets, LW (Landace×Large White crossbred) male, were used. The initial body weight at the time of inoculation of infective materials ranged from 6.5 to 8.5 kg. Piglets were divided into 4 groups ([…] and 1 group of 1 head) and were maintained in stainless cages (90×90 cm) with raised plastic net floors at 28±2° C. Feed [Milk replacer for piglet] and water were supplied ad libitum except the duration of fasting. Infective materials used were prepared as follows. A total of 300 g of mucous haemorrhagic feces, large intestinal (from caecum through rectum) contents, and mucosa obtained from a clinically affected pig (3 days after onset of swine dysentery), which was previously inoculated into its caecum with pure culture of Treponema hyodysenteriae ATCC31212 (about 3×10^9 colony forming units/head) by surgical operation, were suspended, diluted finally 2.5 times with phosphate-bufferized saline and minced by biotron homogenizer (trademark, made by Biotrona Co., Ltd.).
For the purpose of infection, all piglets were inoculated individually with about 90 g of the infective materials after 22 hours' fasting.
Treatment were done once a day for 2 consecutive days from the 5th day post inoculation.

[3] = Growth promoting effect in pigs; assay type: in vivo, pigs (LWD strain); conditions: for Efficiency of feed utilization: 6 weeks, control 2.19; for Average body weight gain at the 6th week after the feeding: control 18.0; for Average final body weight at the 6th week after the starting of the feeding: control 28.0
Text: Five sets of 24 pigs (33 days-old, LWD strain) were used. Each 24 pigs were divided into 4 groups, i.e. 3 treatment groups and a control group. Each group consisted of 3 barrows and 3 female pigs. They were fed continuously with the feed described in Table 6.
The above basal ration I +

[4] = Growth promoting effect in male broiler chickens; assay type: in vivo, male broiler chickens (chunky); conditions: for Average body weight gain at one week after the feeding: control 95.3; for Average final body weight at one week after the feeding: control 183.8; for Efficiency of feed utilization: one week, control 2.02
Text: 8-Days-old male broiler chickens (chunky) were divided into 3 groups i.e. 2 treatment groups and a control group, each group of which consisted of 10 chicks. They were fed continuously with the feed described in Table 8.
The above Basal ration II +

[5] = Acute toxicity test in mice; assay type: in vivo, ddy mice; conditions: single intravenous dose 20 mg (1 g/kg), five mice, 10 days of observation
Method: Further, in the acute toxicity test, each of five ddy mice (5-week old, male, 20 g in weight), was intraveneously given a single dose of WS-1627A, B, C or D 20 mg (lg/kg) and all survived.

[6] = background statement; cited from earlier work
[7] = intramuscularly 10 mg/kg body weight × 2 day, 1 pig
[8] = orally 2.5 mg/kg body weight × 2 day, 2 pigs
[9] = Treatment group I, 10 ppm in feed
[10] = Treatment group II, 20 ppm in feed
[11] = Treatment group III, 40 ppm in feed
[12] = Treatment group II, 50 ppm in feed

## CC(=O)C1OC(Oc2ccc(C=C(C)C(=O)NC3C(O)C(O)C4OCOC4C3O)cc2O)C(O)C1O (stereo not shown) [WS-1627B, hygromycin]
Treponema hyodysenteriae; 72 h
  MIC: < 0.8 mg/L
Treponema hyodysenteriae; ATCC31212, 72 h
  MIC: < 0.8 mg/L
Treponema hyodysenteriae; statement in words
  antimicrobial activities against Treponema hyodysenteriae: strong antimicrobial activities
Treponema hyodysenteriae; strain S5709
  MIC (minimum inhibitory concentration): < 0.8 mg/L
Treponema hyodysenteriae; strain TH81013
  MIC (minimum inhibitory concentration): < 0.8 mg/L
[1]; listed as WS1627B
  cured/treated: 7/7
[2]; [7]
  (average) days of recovery to normal stool: 1 days
  (average) days of disappearance of fecal T. h: 1 days
[2]; [8]
  (average) days of recovery to normal stool: 2 days
  (average) days of disappearance of fecal T. h: 2 days
[3]; [9]
  Efficiency of feed utilization: 2.05
  Average body weight gain at the 6th week after the feeding: 19.6 kg
  Average final body weight at the 6th week after the starting of the feeding: 29.6 kg
[3]; [10]
  Efficiency of feed utilization: 2.11
  Average body weight gain at the 6th week after the feeding: 19.2 kg
  Average final body weight at the 6th week after the starting of the feeding: 29.2 kg
[3]; [11]
  Efficiency of feed utilization: 2.09
  Average body weight gain at the 6th week after the feeding: 18.9 kg
  Average final body weight at the 6th week after the starting of the feeding: 28.9 kg
[4]; [9]
  Average body weight gain at one week after the feeding: 116.5 g
  Average final body weight at one week after the feeding: 204.5 g
  Efficiency of feed utilization: 2.00
[4]; [12]
  Average body weight gain at one week after the feeding: 121 g
  Average final body weight at one week after the feeding: 209 g
  Efficiency of feed utilization: 1.67
[5]
  survival: all survived
  toxic symptom: no toxic symptom was observed
Solubility; acetone
  Solubility: Insoluble
Solubility; chloroform
  Solubility: Insoluble
Solubility; ethyl acetate
  Solubility: Insoluble
Solubility; methanol
  Solubility: Soluble
Solubility; water
  Solubility: Soluble

## CC(=O)C1OC(Oc2ccc(C=C(C)C(=O)NC3C(O)C(O)C4OCOC4C3O)cc2O)C(O)C1O (stereo not drawn) [WS-1627D, epi-hygromycin]
[1]; listed as WS1627D
  cured/treated: 4/7

## COC(=O)N/N=C/c1c[n+]([O-])c2ccccc2[n+]1[O-] [carbadox]
[6]
  mutagenicity: strong mutagenic substance
